According to patent publication US20240398894A1, “ANGIOGENIC CONTROL, PREFERABLY COMBINED WITH GLYCAEMIC CONTROL” (BIOTEMPT B.V., priority 2021, published 2024):
Where a SMILES comes first, the peptide text is derived from it.

Experiments:
[1] = tested on: LPS-activity; conditions: cited from earlier work
[2] = tested on: TNF-α and IL-6; conditions: rat, hemorrhagic shock; cited from earlier work
[3] = tested on: human pulmonary microvascular endothelial cells; test: Microvascular angiogenesis (sprouting) assay in Matrigel; type: cell-based; conditions: for angiogenic (core) activity in sprouting assay: human vascular endothelial cells, as demonstrated herein; for angiogenic activities (total tube length): Matrigel, increasing concentrations, t=24 h, data not shown
Method: Human pulmonary microvascular endothelial cells (Hpmec, HUVE, or other vascular EC, may also be used) were cultured in EBM-2 medium (Lonza, CC-3156) supplemented with 10% FBS and all components present in the bullet kit (Lonza, CC-4147) containing human recombinant FGF-B, human recombinant VEGF, human recombinant R3-IGF-1, ascorbic acid, human recombinant EGF and GA-1000 (Gentamicin sulfate-Amphotericin). 24 hours prior to the assay Hpmec were starved in EBM-2 medium containing 0.5% FBS instead of 10% FBS. For introduction in the angiogenesis assay, endothelial cells were washed 2 times with warm PBS, trypsinized and resuspended in serum free EBM-2 medium. For the angiogenesis assay, Matrigel (Fisher Scientific, Landsmeer, The Netherlands #11523550) was diluted 1:1 in serum-free EBM-2 medium and plated in a 96-well plate (50 μL). After polymerization, the cells were combined with the experimental peptide fragments and added on top of the Matrigel (100 μL). Pictures of the microvascular network were taken after 24 hours of incubation with a 4× objective and analysed using the plug-in angiogenesis analyser in ImageJ.

[4] = tested on: mTOR; conditions: piglets; cited from earlier work
[5] = tested on: human CD4+ cells; test: Human CD4+ lymphocyte-migration assay (modified Boyden chamber); type: cell-based
Method: A: Synthetic human-C-peptide (1-31, having ERC-binding-motif LGGGPG) was tested in human CD4+ lymphocyte-migration assay together with negative and treatment controls: no C-peptide added, scrambled version of human C-peptide (1-31, lacking any xGxxPx motif) and pig-C-peptide (1-29, ˜74% similarity to human C-peptide but lacking any xGxxPx motif; alignment with human C-peptide shown herewith).
Freshly isolated human CD4+ cells were incubated for 3 h with the indicated C-peptide variants (10 nM) to assess the effect on cell migration in a modified Boyden chamber. Results are expressed as the mean±SEM, ****P<0.001 treatments vs. control.
B: Freshly isolated human CD4 cells were preincubated for 3 h with V14 peptide (10 μM) or lactose (10 mM) and then stimulated with C-peptide (1-31) for 3 H as indicated in (A). Results are expressed as the mean±SEM. *P<0.05, ****P<0.001 treatments vs. control, […] ###P<0.001 treatments vs. human C-peptide (1-31).

[6] = tested on: streptozotocin-induced diabetic mice; conditions: supplement using osmotic pumps; cited from earlier work
[7] = tested on: human umbilical vein endothelial cells; conditions: dose-dependent; cited from earlier work
[8] = tested on: NOD mice; conditions: cited from earlier work
[9] = Distribution and elimination of intravenously injected [14C]-AQGV from mice; type: in vivo, male CD-1 mice
Method: The present study, which was conducted by TNO Biosciences, Utrechtseweg, Netherlands, was designed to provide data on the distribution and metabolism of [^14C]-AQGV (Ala-Gln-[1-^14C]Gly-Val) in male CD-1 mice following a single intravenous dose of 50 mg/kg. To this end, mice were sacrificed at 10, 30 and 60 minutes, and 6 and 24 hours after administration of radiolabeled AQGV, counts in various tissues were determined, and the radioactivity present in the urine and plasma were analyzed by HPLC.

[10] = after 10 minutes, 50 mg/kg i.v.

VLPALA
LPS-activity in vitro [1]: significantly inhibited

AQGV
LPS-activity in vitro [1]: significantly inhibited
systemic release of IL-6 [2]: significantly (p<0.001) prevented
systemic release of TNF-α [2]: significantly (p<0.001) prevented

GAYPGAPGAYPGAPAPGV [18-meric peptide derived from the human N-terminal fragment of galectin-3]
angiogenic (core) activity in sprouting assay [3]: have angiogenic core activities

C[C@H](N)C(=O)N[C@@H](CCC(N)=O)C(=O)O [AQ, Alanyl-glutamine] (H-Ala-Gln-OH)
autophagy-inhibition [4]: demonstrated

LAGV
LPS-activity in vitro [1]: significantly inhibited
systemic release of IL-6 [2]: significantly (p<0.001) prevented
systemic release of TNF-α [2]: significantly (p<0.001) prevented

LQAV
LPS-activity in vitro [1]: significantly inhibited

LOGA
LPS-activity in vitro [1]: significantly inhibited

VLAALP
LPS-activity in vitro [1]: significantly inhibited

VLPAAP
LPS-activity in vitro [1]: significantly inhibited

human C-peptide
effect on CD4+ lymphocyte migration ([5]; 10 nM, 3 h incubation): upregulating effect
rate of skin wound closure [6]: significantly increased
concentration of maximal effect on endothelial cell migration and tube formation [7]: 0.5 nM

OC[C@H]1O[C@@H](O[C@H]2[C@H](O)[C@@H](O)C(O)O[C@@H]2CO)[C@H](O)[C@@H](O)[C@H]1O (stereo partly drawn) [lactose]
effect on CD4+-migratory effects of C-peptide ([5]; preincubated 3 h with V14 peptide (10 μM) or lactose (10 mM), then C-peptide (1-31)): blunted

VAPALP
LPS-activity in vitro [1]: significantly inhibited

LGGGPG
angiogenic activities (total tube length) [3]: significantly induced angiogenic activities

LQGV
LPS-activity in vitro [1]: significantly inhibited
systemic release of IL-6 [2]: significantly (p<0.001) prevented
systemic release of TNF-α [2]: significantly (p<0.001) prevented
T1D-onset [8]: significantly (p<0.0001) delay

PGAYPG
angiogenic activities (total tube length) [3]: significantly induced angiogenic activities
angiogenic (core) activity in sprouting assay [3]: have angiogenic core activities

VGVAPGVGVAPGVGVAPG [18-meric peptide derived from human elastin]
angiogenic (core) activity in sprouting assay [3]: core-angiogenic activities have been demonstrated

VLPALP
LPS-activity in vitro [1]: significantly inhibited
T1D-onset [8]: significantly (p<0.0001) delay

VGVAPG
angiogenic activities (total tube length) [3]: significantly induced angiogenic activities
angiogenic (core) activity in sprouting assay [3]: core-angiogenic activities have been demonstrated

Ala-Gln-[1-^14C]Gly-Val [[^14C]-AQGV]
average total recovery of radioactivity ([9]; 10 minutes after dose administration): 83.2%
average total recovery of radioactivity ([9]; 30 minutes after dose administration): 70.5%
average total recovery of radioactivity ([9]; 60 minutes after dose administration): 62.9%
average total recovery of radioactivity ([9]; 6 hours after dose administration): 52.6%
average total recovery of radioactivity ([9]; 24 hours after dose administration): 50.8%
administered radioactivity excreted in feces ([9]; after 24 hours): 2.6%
administered radioactivity excreted in urine ([9]; after 24 hours): 10.2%
removal from the blood ([9]; after intravenous injections): rapidly removed
radioactivity in the blood, amount present if all of the counts were in intact peptide ([9]; blood, 10 minutes after single intravenous dose of 50 mg/kg): 17.2 µg/g
concentration of "peptide" (radioactivity) in kidneys [9, 10]: 362 µg/g
concentration of "peptide" (radioactivity) in kidneys ([9]; after 24 hours, 50 mg/kg i.v.): 61.9 µg/g
concentration of "peptide" (radioactivity) in liver [9, 10]: 105 µg/g
concentration of "peptide" (radioactivity) in liver ([9]; after 24 hours, 50 mg/kg i.v.): 37.6 µg/g
concentration of "peptide" (radioactivity) in lung ([9]; lung, after 10 minutes, 50 mg/kg i.v.): 75.2 µg/g
time to full hydrolysis of the peptide after administration ([9]; mice): 15 min
parent compound in plasma ([9]; plasma after 10 minutes, HPLC, 50 mg/kg i.v.): No parent compound could be detected
concentration of "peptide" (radioactivity) in skin ([9]; skin, after 24 hours, 50 mg/kg i.v.): 37.5 µg/g
concentration of "peptide" (radioactivity) in spleen [9, 10]: 74.7 µg/g
concentration of "peptide" (radioactivity) in spleen ([9]; after 24 hours, 50 mg/kg i.v.): 39.3 µg/g
concentration of "peptide" (radioactivity) in testis ([9]; testis, after 10 minutes, 50 mg/kg i.v.): 85.7 µg/g
concentration of "peptide" (radioactivity) in thymus ([9]; thymus, after 24 hours, 50 mg/kg i.v.): 43.1 µg/g
administered radioactivity exhaled as volatiles, most likely 14C-CO2 ([9]; up to 24 hours): About 50%
parent compound in urine ([9]; urine, HPLC, 50 mg/kg i.v.): No parent compound was detected

ALPALP
LPS-activity in vitro [1]: significantly inhibited
